Results as given in PubChem BioAssay AID2337 (Sanford-Burnham Center for Chemical Genomics, 2010).

System: TNFa-induced NF-kB reporter cells, inhibition
Assay: analog potency on TNFa NF-kB signaling – cell-based, revised, SAR follow-up (AID 2337)

| IC50 [µM] | Structure (SMILES) |
| --- | --- |
| 3.15 | CC1Sc2ccc(S(=O)(=O)N3CCC(C(=O)Nc4ccc(Cl)cc4)CC3)cc2NC1=O (configuration not stated) |
| 19.7 | O=C(Nc1nc2c(F)cc(F)cc2s1)c1ccc([N+](=O)[O-])o1 |
